Assay results as given in PubChem BioAssay (NCI).
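Interpolation was linear, between the two tested concentrations surrounding the appropriate level; five concentrations were tested over 48 hours in 96-well plates. Here, GI50 denotes the concentration required for 50% inhibition of growth. TGI denotes the concentration required for complete inhibition of growth.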

Columns and labels:
Experiment in all cases: NCI anticancer screen, dose series, 48 h
[1] = system: BT-549 breast
[2] = system: MCF7 breast
[3] = system: DU-145 prostate
[4] = system: RXF-631 renal
[5] = system: DMS 273 small cell lung
[6] = system: HOP-18 NSCLC
[7] = system: DMS 114 small cell lung
[8] = system: XF 498 CNS
[9] = system: MDA-N

SMILES | GI50 [1] [µM] | TGI [1] [µM] | GI50 [2] [µM] | TGI [2] [µM] | GI50 [3] [µM] | TGI [3] [µM] | TGI [4] [µM] | TGI [5] [µM] | TGI [6] [µM] | TGI [7] [µM] | TGI [8] [µM] | TGI [9] [µM]
CC1=C2[C@@H](CC1)[C@]1(C)O[C@@](C(C)C)(C[C@H]1OC(=O)[C@H](C)O)[C@H]2OC(=O)/C=C/c1ccccc1 | 0.888 | 15.7 | 8.15 | 23.5 | 15.9 | 31.9 | – | – | – | – | – | –
CC1=C[C@@H]2Cc3occc3C(C)(C)[C@@H]2CC1 | – | – | – | – | – | – | 38.5 | 26.8 | 54 | 35.9 | 29.3 | –
O=C(Cc1ccc(/C=C/C(=O)c2ncc[nH]2)cc1)Nc1ccc(Cl)cc1 | 3.46 | 11.2 | 0.741 | 4.73 | 1.7 | 7.39 | – | – | – | – | – | –
O=C1Oc2cc3c(c4cccc1c24)OCN(c1ccc(Cl)cc1)C3 | – | – | – | – | – | – | – | > 100 | 91.5 | > 57.2 | 45.6 | –
Cc1cccc2c3ccc4c(c3n(C)c12)C(=O)C=CC4=O | – | – | – | – | – | – | > 100 | > 100 | – | > 100 | – | –
C[C@]12CCC(=O)C=C1CC[C@@H]1C2CC[C@]2(C)NC(=O)C(C#N)CC12 (stereo partly drawn) | – | – | – | – | – | – | – | > 100 | – | > 100 | > 100 | –
CC(C)(C)C1=NC(S)NC(CCC(=O)Nc2ccccc2[N+](=O)[O-])=C1 (stereo not drawn) | – | – | – | – | – | – | > 100 | – | > 100 | > 100 | – | –
CCCCn1/c(=N/C(=S)N(C)C)ss/c1=N\C(=S)N(C)C | – | – | – | – | – | – | – | > 100 | > 100 | – | > 100 | –
O=[N+]([O-])c1ccc(NSc2ccccc2)cc1 | – | – | – | – | – | – | – | 33.7 | > 100 | > 100 | 95.3 | –
CCOC(=O)c1cc(-c2ccc([N+](=O)[O-])cc2)n(-c2ccc(C(=O)O)c(O)c2)c1C | 3.83 | 18.1 | 3.58 | 13.7 | 4.55 | 17.5 | – | – | – | – | – | –
CN(C)CCNc1nc2ccccc2c2[nH]c3ccccc3c12 | 2.58 | 8.83 | 0.129 | 0.941 | 1.06 | 6.93 | – | – | – | – | – | –
O=c1[nH]c(=O)n(C2CC(O)C(CO)O2)cc1C#Cc1c(F)c(F)c(F)c(F)c1F (stereo not drawn) | – | – | – | – | – | – | – | > 100 | – | > 100 | – | –
Cc1nc2nnc(C)n2c2c1C(=O)Nc1ccccc1N2 | – | – | – | – | – | – | – | > 100 | > 100 | > 100 | > 100 | –
O=C1NC(=O)C2C(=O)NC(=O)C1C2(c1ccccc1)c1ccc(Cl)cc1 (stereo not drawn) | – | – | – | – | – | – | – | > 100 | – | – | > 100 | –
COc1cc([C@@H]2c3cc4c(cc3[C@@H](NC(=O)c3cccc([N+](=O)[O-])c3)C3COC(=O)[C@@H]32)OCO4)cc(OC)c1O (stereo partly drawn) | – | – | – | – | – | – | 18.8 | > 100 | – | – | – | –
O=C(O)/C=C/C(=O)Nc1ncn[nH]1 | – | > 100 | – | > 100 | – | > 100 | – | – | – | – | – | > 100
N#Cc1nc(-c2ccc(F)cc2)oc1S(=O)(=O)N1CCOCC1 | 10.8 | 23 | 2.65 | 11.7 | 2.23 | 6.07 | – | – | – | – | – | –
O=C1CCC(NC(=O)c2ccccc2)C(=O)N1 (stereo not drawn) | – | > 100 | – | > 100 | – | > 100 | – | – | – | – | – | > 100
C[Si](C)(C)c1ccc(CC2(Cc3ccc([Si](C)(C)C)cc3)CCNC2)cc1 | – | – | – | – | – | – | 5.36 | 3.42 | 9.12 | 3.87 | – | –

SMILES | GI50 [1] [µM] | TGI [1] [µM] | GI50 [2] [µM] | TGI [2] [µM] | GI50 [3] [µM] | TGI [3] [µM] | TGI [4] [µM] | TGI [5] [µM] | TGI [6] [µM] | TGI [7] [µM] | TGI [8] [µM] | TGI [9] [µM]
CCCNC(=O)OCc1c(COC(=O)NCCC)c(-c2ccc(Cl)c(Cl)c2)n2c1CCC2 | – | 15.9 | – | 19.8 | – | > 100 | – | – | – | – | – | –
COc1cc2c(cc1OC)C1C=NC(C(=O)O)(C2)c2ccccc21 (stereo not drawn) | – | – | – | – | – | – | > 100 | > 100 | – | > 100 | – | –
COc1ccc(CN2CCCC(C(=O)c3ccc(C(F)(F)F)cc3)C2)c(O)c1 (stereo not drawn) | 24.3 | 71.9 | 18 | 54.7 | 53.9 | > 100 | – | – | – | – | – | –
COc1ccc(/C=C(/C(=O)O)c2cc(OC)c(OC)c(OC)c2)cc1 | – | – | – | – | – | – | > 100 | > 100 | – | > 100 | – | –
S=C1NCCN1C1=Nc2ccccc2CO1 | > 100 | > 100 | > 100 | > 100 | > 100 | > 100 | – | – | – | – | – | –
Cc1cccc(C(C)(C)C)c1NC(=O)C(=O)Cc1nc2ccccc2s1 | – | – | – | – | – | – | > 100 | > 100 | > 100 | > 100 | – | –
CCOC(=O)CCCO | – | – | – | – | – | – | > 100 | – | > 100 | – | > 100 | –
CN(C)S(=O)(=O)Nc1ccccn1 | – | > 100 | – | > 100 | – | > 100 | – | – | – | – | – | > 100
N#Cc1cnn2ccn(C3OC(COC(=O)c4ccccc4)C(OC(=O)c4ccccc4)C3OC(=O)c3ccccc3)c12 (stereo not drawn) | – | > 100 | – | > 46.4 | – | > 21.5 | – | – | – | – | – | > 21.5
c1ccc(-c2nnc(-c3nn(-c4ccccc4)c4nc5ccccc5nc34)o2)cc1 | – | – | – | – | – | – | – | > 100 | > 100 | > 100 | 61 | –
COc1cc2c(c(OC)c1OC)-c1ccc(NCc3ccccc3)c(=O)cc1[C@@H](NC(C)=O)CC2 | 1.41 | 26.1 | 0.337 | 19.7 | 0.374 | 7.91 | – | – | – | – | – | –
O=C1CSC(N2CCN(c3cccc(Cl)c3)CC2)=N1 | > 100 | > 100 | > 100 | > 100 | > 100 | > 100 | – | – | – | – | – | –
COC(=O)C(CC(=O)c1cc2c(cc1I)OCO2)Cc1cc(OC)c(OC)c(OC)c1I (stereo not drawn) | – | – | – | – | – | – | – | > 100 | > 100 | > 100 | > 100 | –
CN(C)c1ccc2c(c1)oc(=O)c1ccccc12 | – | 17.1 | – | 17.1 | – | 23 | – | – | – | – | – | 26.7
Cc1c(N2C(=O)/C(=C\c3ccccc3O)N=C2c2ccccc2)c(=O)n(-c2ccccc2)n1C | – | – | 3.83 | > 100 | 87.4 | > 100 | – | – | – | – | – | –
Cn1c(-c2nonc2N)nc2cnccc21 | 17.6 | > 25 | > 25 | > 25 | > 25 | > 25 | – | – | – | – | – | –
COC(=O)c1c2c(c(C)[n+]([O-])c1C)C(=O)C=CC2=O | 1.72 | 3.14 | – | – | 1.82 | 3.22 | – | – | – | – | – | –
O=C1c2ccccc2-c2c1c1cc3c(cc1c(=O)n2CCCCl)OCO3 | 45.9 | > 100 | 17.7 | > 100 | > 100 | > 100 | – | – | – | – | – | –
COc1cccc(-c2nn(-c3ccccc3)cc2-c2ccnc(NCCCNS(=O)(=O)c3cccc(F)c3)c2)c1 | 2.76 | > 100 | 3.21 | > 100 | 6.33 | > 100 | – | – | – | – | – | –
